Holding throughout (assay): Kinase specificity assay (33P phosphoryl transfer, LCCA or AlphaScreen)
Holding throughout (type): biochemical

The target of one test is Fyn (Homo sapiens, UniProt P06241). Conditions: ATP close to KM; read-out: Fyn inhibition, IC50. How it is done: (§1) Kinase activity and compound inhibition are investigated using one or more of the three assay formats described below. The ATP concentrations for each assay are selected to be close to the Michaelis-Menten constant (KM) for each individual kinase. Dose-response experiments are performed at 10 different inhibitor concentrations in a 384-well plate format. The data are fitted to the following four-parameter equation: Y=Min+(Max−Min)/(1+(X/IC50)^H) where Y is the observed signal, X is the inhibitor concentration, Min is the background signal in the absence of enzyme (0% enzyme activity), Max is the signal in the absence of inhibitor (100% enzyme activity), IC50 is the inhibitor concentration at 50% enzyme inhibition and H represents the empirical Hill's slope to measure the cooperativity. Typically H is close to unity. ^33P Phosphoryl Transfer Assay:
(§2) Greiner 384-well white, clear bottom, high binding plates are coated with 2 μg/well of protein or peptide substrate in a 50 μL volume overnight at ambient temperature. The coating buffer typically contains 40 μg/mL substrate, 22.5 mM Na2CO3, 27.5 mM NaHCO3, 150 mM NaCl and 3 mM NaN3. The coating solution is aspirated and the plates are washed once with 50 μL of assay buffer and padded dry. Subsequently compounds and enzymes are mixed with γ^33P-ATP (3.3 μCi/nmol) in a total volume of 20 uL in suitable assay buffers. The mixture is incubated at ambient temperature for 1.5-2.5 hrs and terminated by aspiration using a Molecular Devices EMBLA 96-head plate washer. The plates are subsequently washed 6-12 times with PBST or TBS buffer. Scintillation fluid (50 μl/well) is then added, the plates are sealed and activity assessed by liquid scintillation spectrometry using a Perkin Elmer MicroBeta TriLux.
(§3) In the LCCA assays, kinase activity is measured as the percent ATP consumed following the kinase reaction using luciferase-luciferin-coupled chemiluminescence. Greiner 384-well white, clear bottom, medium binding plates are used for LCCA. Briefly, the kinase reaction is initiated by mixing compounds, ATP and kinase in a 20 uL volume. The mixture is incubated at ambient temperature for 2-4 hrs. At the end of the kinase reaction, a 20 uL luciferase-luciferin mix is added and the chemiluminescent signal is read using a Wallac Victor^2 reader. The luciferase-luciferin mix consists of 50 mM HEPES, pH 7.8, 8.5 ug/mL oxalic acid (pH 7.8), 5 (or 50) mM DTT, 0.4% Triton X-100, 0.25 mg/mL coenzyme A, 63 uM AMP, 28 ug/mL luciferin and 40,000 units of light/mL luciferase. For the LCCA assays, total ATP consumption has been standardized to 25-45% and the IC50 values correlates well with those determined by radiometric assays.
(§4) AlphaScreen technology is a proximity assay which utilizes the increase in fluorescent signal when donor and acceptor beads are close in proximity. Biotinylated poly(Glu,Tyr) 4:1 is used as the kinase substrate, in conjunction with streptavidin-coated donor beads and anti-phosphortyrosine antibody PY100-coated acceptor beads. Upon phosphorylation, the peptide substrate can bind to both donor and acceptor beads giving rise to an increase in fluorescence. Compounds, ATP, biotinylated poly(Glu, Tyr) and kinases are mixed in a volume of 20 uL for 1 hr at ambient temperature using Greiner 384-well white clear bottom medium binding plates. Following incubation a 10 uL solution containing […] AlphaScreen beads, 75 mM Hepes, pH 7.4, 300 mM NaCl, 120 mM EDTA, 0.3% BSA and 0.03% Tween-20 is added to each well. After 2-16 hr incubation of the beads, plates are read in a Perkin Elmer AlphaQuest reader. The IC50 values correlates well with those of radiometric assays.

For a further test, the target named is T1, PKCe (Homo sapiens, UniProt Q02156).
T1 sequence (Q02156 1-737): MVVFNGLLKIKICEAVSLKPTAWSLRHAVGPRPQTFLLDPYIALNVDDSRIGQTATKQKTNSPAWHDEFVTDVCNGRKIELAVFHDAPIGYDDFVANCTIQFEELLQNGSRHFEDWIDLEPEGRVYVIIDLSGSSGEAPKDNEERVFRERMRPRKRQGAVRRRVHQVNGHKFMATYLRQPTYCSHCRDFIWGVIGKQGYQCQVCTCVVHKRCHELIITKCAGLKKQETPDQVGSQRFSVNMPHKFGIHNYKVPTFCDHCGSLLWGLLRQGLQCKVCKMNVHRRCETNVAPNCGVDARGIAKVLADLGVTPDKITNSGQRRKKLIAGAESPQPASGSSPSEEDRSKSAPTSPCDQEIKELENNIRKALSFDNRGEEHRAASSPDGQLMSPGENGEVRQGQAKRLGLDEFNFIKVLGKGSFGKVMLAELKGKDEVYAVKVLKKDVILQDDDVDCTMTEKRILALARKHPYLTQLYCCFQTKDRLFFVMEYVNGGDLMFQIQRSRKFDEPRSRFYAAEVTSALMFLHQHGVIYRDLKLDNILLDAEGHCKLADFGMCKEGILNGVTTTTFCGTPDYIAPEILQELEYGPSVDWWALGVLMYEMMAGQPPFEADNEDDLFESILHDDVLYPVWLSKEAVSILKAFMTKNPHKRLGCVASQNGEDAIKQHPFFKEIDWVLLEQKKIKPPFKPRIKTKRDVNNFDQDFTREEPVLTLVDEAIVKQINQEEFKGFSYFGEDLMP
Conditions: ATP close to KM; read-out: PKCe inhibition, IC50. As for the experimental part: as §1, §2, §3, §4

In the next test the target is EGFR (Homo sapiens, UniProt P00533). Conditions: ATP close to KM; read-out: EGFR inhibition, IC50. How it is done: as §1, §2, §3, §4
Chain of EGFR (P00533 25-1210): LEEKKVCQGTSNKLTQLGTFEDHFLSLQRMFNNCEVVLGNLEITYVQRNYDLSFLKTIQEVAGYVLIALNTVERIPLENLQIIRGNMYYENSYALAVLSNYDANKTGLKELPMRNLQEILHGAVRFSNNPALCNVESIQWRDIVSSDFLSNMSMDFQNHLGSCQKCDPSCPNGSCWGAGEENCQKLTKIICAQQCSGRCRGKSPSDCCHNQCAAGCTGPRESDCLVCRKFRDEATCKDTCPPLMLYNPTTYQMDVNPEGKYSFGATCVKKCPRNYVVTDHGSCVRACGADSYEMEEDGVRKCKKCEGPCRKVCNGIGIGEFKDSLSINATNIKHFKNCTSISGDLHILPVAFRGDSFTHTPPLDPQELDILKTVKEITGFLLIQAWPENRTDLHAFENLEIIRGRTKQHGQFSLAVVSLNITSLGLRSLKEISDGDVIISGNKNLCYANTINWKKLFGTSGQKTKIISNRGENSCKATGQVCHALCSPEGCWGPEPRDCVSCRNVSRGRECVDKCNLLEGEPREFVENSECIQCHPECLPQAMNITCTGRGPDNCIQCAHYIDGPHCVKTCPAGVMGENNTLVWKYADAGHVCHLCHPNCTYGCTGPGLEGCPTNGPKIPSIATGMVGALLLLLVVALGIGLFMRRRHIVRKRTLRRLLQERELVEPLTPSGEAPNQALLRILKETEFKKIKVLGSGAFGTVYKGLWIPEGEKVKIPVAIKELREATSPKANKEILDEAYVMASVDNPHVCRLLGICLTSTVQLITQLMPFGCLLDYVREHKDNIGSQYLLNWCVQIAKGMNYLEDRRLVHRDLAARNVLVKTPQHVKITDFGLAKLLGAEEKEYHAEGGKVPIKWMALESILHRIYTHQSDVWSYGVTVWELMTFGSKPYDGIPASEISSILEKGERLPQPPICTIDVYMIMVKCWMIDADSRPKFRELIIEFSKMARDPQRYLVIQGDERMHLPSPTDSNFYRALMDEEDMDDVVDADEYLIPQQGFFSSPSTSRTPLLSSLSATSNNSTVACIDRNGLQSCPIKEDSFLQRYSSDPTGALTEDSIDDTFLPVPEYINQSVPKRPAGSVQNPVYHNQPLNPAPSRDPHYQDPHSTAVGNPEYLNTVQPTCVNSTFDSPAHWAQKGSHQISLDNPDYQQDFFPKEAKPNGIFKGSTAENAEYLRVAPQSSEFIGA

Where only a bound is given, the exact number is not on record here.

Chain of Fyn (P06241 whole entry): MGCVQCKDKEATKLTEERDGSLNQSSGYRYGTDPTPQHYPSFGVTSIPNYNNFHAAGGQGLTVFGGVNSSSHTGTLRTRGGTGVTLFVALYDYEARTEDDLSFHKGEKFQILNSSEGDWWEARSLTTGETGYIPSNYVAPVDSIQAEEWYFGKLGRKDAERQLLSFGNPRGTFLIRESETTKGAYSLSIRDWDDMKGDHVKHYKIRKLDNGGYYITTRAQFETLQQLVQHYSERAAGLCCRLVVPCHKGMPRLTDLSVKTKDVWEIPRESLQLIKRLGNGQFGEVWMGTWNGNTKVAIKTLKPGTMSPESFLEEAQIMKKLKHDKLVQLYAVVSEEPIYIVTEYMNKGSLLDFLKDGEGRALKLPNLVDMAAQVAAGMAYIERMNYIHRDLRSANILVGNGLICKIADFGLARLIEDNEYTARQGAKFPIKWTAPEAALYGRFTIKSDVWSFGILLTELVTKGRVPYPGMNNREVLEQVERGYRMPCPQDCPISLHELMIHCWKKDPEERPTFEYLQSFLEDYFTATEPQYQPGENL

On to `NC(=O)c1nc(-c2cccc3ccccc23)cnc1N` [Example 2, 3-Amino-6-naphthalen-1-ylpyrazine-2-carboxamide], for which the IC50 (in general, the concentration at which inhibition is half-maximal) is 1 to 10 µM at Fyn, no less than 10 µM at PKCe and no less than 10 µM on EGFR.

These data come from US7704995B2 (Exelixis, Inc., priority 2003, dated 2010).
